{"source": "patent US6495525B1", "about": "“VLA-4 inhibitor: oMePUPA-V” (Biogen, Inc., priority 1998, dated 2002)", "key": {"human ACE": {"target": "T1, human ACE (Homo sapiens, UniProt P12821)", "T1 construct": "The source of ACE proteases was human endothelial cells (HUVEC); host or cells: HUVEC (human endothelial cells)", "T1 sequence (P12821 30-1306)": "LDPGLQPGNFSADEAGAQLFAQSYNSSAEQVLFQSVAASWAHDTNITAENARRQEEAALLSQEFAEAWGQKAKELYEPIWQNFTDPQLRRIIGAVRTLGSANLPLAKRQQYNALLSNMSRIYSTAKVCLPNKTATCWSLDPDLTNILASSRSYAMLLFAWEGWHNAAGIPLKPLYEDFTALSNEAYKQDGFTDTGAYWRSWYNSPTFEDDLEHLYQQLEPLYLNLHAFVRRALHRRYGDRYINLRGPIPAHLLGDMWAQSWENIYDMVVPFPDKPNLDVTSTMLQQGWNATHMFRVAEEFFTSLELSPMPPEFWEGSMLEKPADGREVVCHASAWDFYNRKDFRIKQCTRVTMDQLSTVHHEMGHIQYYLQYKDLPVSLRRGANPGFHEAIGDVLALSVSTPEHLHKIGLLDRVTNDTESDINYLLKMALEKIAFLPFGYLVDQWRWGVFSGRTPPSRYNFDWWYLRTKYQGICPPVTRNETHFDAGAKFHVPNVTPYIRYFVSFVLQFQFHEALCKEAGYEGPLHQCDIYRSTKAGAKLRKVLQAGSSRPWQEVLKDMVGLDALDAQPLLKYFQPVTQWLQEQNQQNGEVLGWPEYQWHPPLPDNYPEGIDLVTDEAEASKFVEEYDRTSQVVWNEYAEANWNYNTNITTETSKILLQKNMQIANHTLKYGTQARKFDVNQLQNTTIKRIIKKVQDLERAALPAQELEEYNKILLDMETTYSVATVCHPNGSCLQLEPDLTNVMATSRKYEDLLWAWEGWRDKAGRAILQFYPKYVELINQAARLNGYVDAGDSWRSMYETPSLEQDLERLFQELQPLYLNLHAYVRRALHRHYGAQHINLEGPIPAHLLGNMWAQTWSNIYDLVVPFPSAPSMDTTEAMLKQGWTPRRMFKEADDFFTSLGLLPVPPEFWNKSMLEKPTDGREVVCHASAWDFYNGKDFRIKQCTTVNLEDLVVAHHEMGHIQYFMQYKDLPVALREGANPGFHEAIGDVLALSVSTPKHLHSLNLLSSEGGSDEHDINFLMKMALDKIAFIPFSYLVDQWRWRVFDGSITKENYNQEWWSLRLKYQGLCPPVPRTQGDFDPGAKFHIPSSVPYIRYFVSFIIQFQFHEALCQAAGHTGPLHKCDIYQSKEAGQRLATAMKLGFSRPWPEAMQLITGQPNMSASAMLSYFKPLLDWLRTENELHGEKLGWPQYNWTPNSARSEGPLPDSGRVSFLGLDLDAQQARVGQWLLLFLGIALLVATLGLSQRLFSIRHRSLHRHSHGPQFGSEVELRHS", "assay": "ACE protease activity (Cerep, HUVEC, 3H-HGG conversion)", "assay_type": "biochemical", "source_text": "The source of ACE proteases was human endothelial cells (HUVEC). ^3H-HGG, added to HUVEC, was converted to ^3H-hippuric acid and glycylglycine by ACE."}, "[1]": {"test_system": "mouse contact hypersensitivity", "assay": "DNFB contact hypersensitivity model, ear swelling", "assay_type": "in vivo, mice", "settings": "0.03 or 0.3 mg/kg enterally 4 hours after DNFB challenge, measured 24 hours after challenge", "protocol": "Twenty gram female virus-free Balb/c mice (Jackson Laboratories, Bar Harbor, Me.) housed four to a cage in microisolator cages in Biogen's virus-free animal facility and receiving ad libitum mouse chow and tap water were used for all studies. Mice were anesthetized with ketamine:xylazine (90:10 mg/kg, i.p.). A 3 cm^2 patch of abdominal skin, xiphoid to pubis was exposed by closely shaving the far and the skin was scrubbed with 70% ethanol. A 25 μL volume of 0.5% DNFB in 4:1 v/v acetone:olive oil vehicle is uniformly applied to the bare abdominal skin. The skin was lightly scratched with the applying pipette tip to encourage mild inflammation. […] Twenty four hours after challenge, mice were again anesthetized with ketamine:xylazine and the ear thickness of both ears measured with an engineer's micrometer to an accuracy of 10^−4 inches.\nCompounds (100 μL) or appropriate vehicle (Dimethylsulfoxide [DMSO] in isotonic phosphate buffered saline [PBS], 100 μL) were administered orally by gavage 4 hours after challenging the immune response on Day 5. […] The ear swelling response for each mouse was calculated as the difference between its vehicle- and DNFB-challenged ear thickness at 24 hours after challenge. […] Inhibition of the ear swelling response was determined by comparison of treated groups with their vehicle control group. […] Values are expressed as means ± standard error of the mean (SEM)."}, "VLA-5": {"target": "T2, VLA-5 (Homo sapiens, UniProt P05556+P08648)", "T2 construct": "endogenous in cells; host or cells: K562 cells", "T2 sequence (P08648 42-894 limits assumed)": "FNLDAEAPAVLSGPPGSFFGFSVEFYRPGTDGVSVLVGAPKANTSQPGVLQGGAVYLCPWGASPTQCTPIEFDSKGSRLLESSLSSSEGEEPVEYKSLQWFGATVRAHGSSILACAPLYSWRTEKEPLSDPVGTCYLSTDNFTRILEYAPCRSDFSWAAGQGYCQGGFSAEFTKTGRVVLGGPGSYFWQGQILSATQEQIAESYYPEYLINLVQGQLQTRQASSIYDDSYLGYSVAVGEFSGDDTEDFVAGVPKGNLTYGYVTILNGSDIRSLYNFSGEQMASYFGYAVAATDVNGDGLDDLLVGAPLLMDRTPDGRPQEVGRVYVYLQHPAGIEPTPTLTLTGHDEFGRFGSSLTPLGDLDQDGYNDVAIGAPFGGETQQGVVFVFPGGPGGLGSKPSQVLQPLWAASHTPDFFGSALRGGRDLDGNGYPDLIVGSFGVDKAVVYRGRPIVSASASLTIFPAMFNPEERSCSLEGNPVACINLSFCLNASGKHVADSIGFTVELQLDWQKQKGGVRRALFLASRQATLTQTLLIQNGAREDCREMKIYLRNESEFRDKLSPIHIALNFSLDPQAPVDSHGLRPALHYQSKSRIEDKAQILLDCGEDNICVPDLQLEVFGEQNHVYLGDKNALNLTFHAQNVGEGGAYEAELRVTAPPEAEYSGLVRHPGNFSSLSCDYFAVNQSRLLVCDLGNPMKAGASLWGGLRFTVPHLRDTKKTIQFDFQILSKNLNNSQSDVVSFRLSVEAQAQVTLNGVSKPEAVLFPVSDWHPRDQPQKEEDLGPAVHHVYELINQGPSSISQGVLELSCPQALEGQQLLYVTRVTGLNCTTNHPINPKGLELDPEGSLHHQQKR", "T2 sequence (P08648 895-1049 partner limits assumed)": "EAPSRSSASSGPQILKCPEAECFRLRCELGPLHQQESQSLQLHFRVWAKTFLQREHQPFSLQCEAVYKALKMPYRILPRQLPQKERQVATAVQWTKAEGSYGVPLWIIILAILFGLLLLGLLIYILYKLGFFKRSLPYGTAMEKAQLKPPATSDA", "T2 sequence (P05556 21-798)": "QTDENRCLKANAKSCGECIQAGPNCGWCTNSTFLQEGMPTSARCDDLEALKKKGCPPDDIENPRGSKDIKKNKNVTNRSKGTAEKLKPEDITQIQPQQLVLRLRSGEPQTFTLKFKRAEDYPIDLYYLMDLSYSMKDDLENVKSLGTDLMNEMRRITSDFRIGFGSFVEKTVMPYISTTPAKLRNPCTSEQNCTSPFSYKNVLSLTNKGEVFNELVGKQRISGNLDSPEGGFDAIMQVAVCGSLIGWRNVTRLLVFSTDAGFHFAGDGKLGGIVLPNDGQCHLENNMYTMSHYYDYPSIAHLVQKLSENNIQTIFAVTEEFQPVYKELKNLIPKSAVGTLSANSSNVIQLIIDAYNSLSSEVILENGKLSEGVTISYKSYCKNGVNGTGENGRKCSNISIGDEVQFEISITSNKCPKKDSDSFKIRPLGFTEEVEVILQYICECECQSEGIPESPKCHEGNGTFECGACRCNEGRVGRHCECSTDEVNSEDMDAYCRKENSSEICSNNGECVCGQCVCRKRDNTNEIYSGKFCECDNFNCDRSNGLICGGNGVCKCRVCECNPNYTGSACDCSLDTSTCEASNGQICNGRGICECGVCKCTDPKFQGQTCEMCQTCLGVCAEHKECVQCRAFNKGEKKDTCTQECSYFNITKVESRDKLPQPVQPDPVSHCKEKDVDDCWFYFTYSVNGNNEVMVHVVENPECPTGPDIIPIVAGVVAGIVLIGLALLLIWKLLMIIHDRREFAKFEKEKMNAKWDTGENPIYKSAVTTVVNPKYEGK", "assay": "Adhesion of K562 cells to Fn-120 (VLA-5 / α5β1-FN adhesion)", "assay_type": "cell-based", "protocol": "Untreated 96 well polystyrene flat bottom plates were coated with 5 μg/ml Fn-120 overnight at 4° C. The plates were washed twice with phosphate buffered saline (PBS) and blocked with 1% Bovine Serum Albumin (BSA) for 1 hour at room temperature. The plates were washed twice with TBS buffer containing 1 mM MnCl2 (assay buffer). K562 cells were labeled with 2 μM of the fluorescent dye, BCECF-AM (see section 4.1.3), and bound to the plate for 30 minutes at room temperature. The plates were inverted and washed three times and adherent cells were quantitated in a Cytofluor fluorescent platereader using an excitation wavelength of 485 nm and an emission wavelength of 530"}}, "note": "“Also recorded” adds a separate entry of the source."}
{"molecule": "Cc1ccccc1NC(=O)Nc1ccc(CC(=O)N2CCC[C@H]2C(=O)N[C@H](C)CC(=O)O)cc1", "note": "[oMePUPA-V]", "values": [{"measurement": "Ames test (mutagenicity)", "setting": "Ames test (mutagenicity)", "value": "clean"}, {"measurement": "ACE activity", "setting": "human ACE", "value": "clean"}, {"measurement": "inhibition of human ACE protease activity", "setting": "human ACE; at 10 μM, HUVEC", "value": "no inhibition"}, {"measurement": "inhibition of ear swelling response (in words)", "setting": "[1]", "value": "significantly inhibited"}, {"measurement": "measurable activity against VLA-5", "setting": "VLA-5", "value": "> 100", "unit": "µM"}, {"measurement": "inhibition, K562 (VLA-5) Fn-120 adhesion", "setting": "VLA-5; @ 100 μM, Mn+2, 100 µM", "value": "no inhibition; also recorded: no inhibition @"}, {"measurement": "IC50", "setting": "VLA-5; read-out: IC50 against α5β1-FN adhesion", "value": "> 100", "unit": "µM"}]}
